In US10919914B2, “Heterocyclic compounds and uses thereof” (Infinity Pharmaceuticals, Inc., priority 2016, dated 2021):
pIC50: −log10 of the molar value.

What was measured:
[1] = target: PI3K δ (Homo sapiens (Human), UniProt O00329); test: PI3-Kinase HTRF assay; format: biochemical
Text: A PI3-Kinase HTRF® assay kit (cat No. 33-016) purchased from Millipore Corporation is used to screen compounds provided herein. This assay uses specific, high affinity binding of the GRP1 pleckstrin homology (PH) domain to PIP3, the product of a Class 1A or 1B PI3 Kinase acting on its physiological substrate PIP2. During the detection phase of the assay, a complex is generated between the GST-tagged PH domain and biotinylated short chain PIP3. The biotinylated PIP3 and the GST-tagged PH domain recruited fluorophores (Streptavidin-Allophycocyanin and Europium-labeled anti-GST respectively) to form the fluorescence resonance energy transfer (FRET) architecture, generating a stable time-resolved FRET signal. The FRET complex is disrupted in a competitive manner by non-biotinylated PIP3, a product formed in the PI3 Kinase assay.
PI3 Kinase α, γ or δ activity is assayed using the PI3 Kinase HTRF® assay kit (catalogue No. 33-016) purchased from Millipore Corporation. Purified recombinant PI3Kα (catalogue No. 14-602-K), PI3Kβ (catalogue No. 14-603-K), PI3Kγ (catalogue No. 14-558-K), and PI3Kδ (catalogue No. 14-604-K) are obtained from Millipore Corporation. Purified recombinant PI3K enzyme is used to catalyze the phosphorylation of phosphatidylinositol 4,5-bisphosphate (PIP2 at 10 μM) to phosphatidylinositol 3,4,5-trisphosphate (PIP3) in the presence of 10 μM ATP. The assay is carried out in 384-well format and detected using a Perkin Elmer EnVision Xcite Multilabel Reader. Emission ratios are converted into percent inhibitions and imported into GraphPad Prism software. […] IC50 values are determined using a nonlinear regression model available in GraphPad Prism 5.
Other commercial kits or systems for assaying PI3-K activities are available. The commercially available kits or systems can be used to screen for inhibitors and/or agonists of PI3-Ks including, but not limited to, PI 3-Kinase α, β, δ, and γ. […] The plate is sealed, incubated for 1 hour at room temperature, and then read on an appropriate plate reader. Data is analyzed and IC50s are generated using GraphPad Prism 5.

[2] = target: PI3K γ (Homo sapiens (Human), UniProt P48736); test: PI3-Kinase HTRF assay; format: biochemical
Chain of PI3K γ (P48736 whole entry, the tested form may be a part): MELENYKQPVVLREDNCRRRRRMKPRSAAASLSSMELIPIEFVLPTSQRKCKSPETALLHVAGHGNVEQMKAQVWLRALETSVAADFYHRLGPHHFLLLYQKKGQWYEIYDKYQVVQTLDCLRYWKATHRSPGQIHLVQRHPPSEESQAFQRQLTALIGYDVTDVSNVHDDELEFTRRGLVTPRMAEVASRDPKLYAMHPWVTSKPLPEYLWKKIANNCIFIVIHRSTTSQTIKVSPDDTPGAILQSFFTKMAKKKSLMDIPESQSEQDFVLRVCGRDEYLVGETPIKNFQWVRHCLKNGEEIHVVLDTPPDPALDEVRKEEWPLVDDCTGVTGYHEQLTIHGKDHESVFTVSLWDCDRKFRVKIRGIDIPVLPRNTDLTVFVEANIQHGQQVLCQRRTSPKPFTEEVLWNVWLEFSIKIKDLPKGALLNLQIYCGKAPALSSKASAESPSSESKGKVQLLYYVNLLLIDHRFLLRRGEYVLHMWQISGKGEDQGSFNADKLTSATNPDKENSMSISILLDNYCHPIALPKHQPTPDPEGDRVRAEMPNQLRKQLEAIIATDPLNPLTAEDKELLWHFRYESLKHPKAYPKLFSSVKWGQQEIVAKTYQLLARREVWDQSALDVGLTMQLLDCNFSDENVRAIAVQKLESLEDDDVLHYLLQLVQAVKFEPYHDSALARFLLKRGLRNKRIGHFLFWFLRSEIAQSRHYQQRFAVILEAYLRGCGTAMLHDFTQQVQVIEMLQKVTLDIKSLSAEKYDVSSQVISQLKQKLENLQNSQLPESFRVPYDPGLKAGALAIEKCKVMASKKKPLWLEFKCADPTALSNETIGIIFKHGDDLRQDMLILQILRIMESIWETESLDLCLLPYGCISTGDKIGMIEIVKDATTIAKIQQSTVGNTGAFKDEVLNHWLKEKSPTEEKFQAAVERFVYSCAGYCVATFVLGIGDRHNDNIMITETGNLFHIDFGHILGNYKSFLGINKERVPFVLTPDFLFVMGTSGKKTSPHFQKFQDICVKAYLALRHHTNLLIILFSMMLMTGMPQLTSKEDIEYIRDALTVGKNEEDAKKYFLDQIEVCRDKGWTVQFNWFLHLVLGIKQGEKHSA
Text: The biotinylated PIP3 and the GST-tagged PH domain recruited fluorophores (Streptavidin-Allophycocyanin and Europium-labeled anti-GST respectively) to form the fluorescence resonance energy transfer (FRET) architecture, generating a stable time-resolved FRET signal.
Other commercial kits or systems for assaying PI3-K activities are available. […] An exemplary system is PI 3-Kinase (human) HTRF™ Assay from Upstate. […] Briefly, the assay is a time resolved FRET assay that indirectly measures PIP3 product formed by the activity of a PI3-K. The kinase reaction is performed in a microtiter plate (e.g., a 384 well microtiter plate). […] The plate is sealed and incubated for 15 minutes at room temperature. […] The plate is sealed and incubated for 1 hour at room temperature. […] The plate is sealed, incubated for 1 hour at room temperature, and then read on an appropriate plate reader. Data is analyzed and IC50s are generated using GraphPad Prism 5.

[3] = tested on: PI3K/Akt/mTOR signaling (phosphorylation of Akt-S473 and S6); test: Kinase signaling in blood (phosflow); format: cell-based; details: anti-CD3 stimulated splenocytes or peripheral blood mononuclear cells
Procedure: PI3K/Akt/mTOR signaling is measured in blood cells using the phosflow method (Methods Enzymol. (2007) 434:131-54). This method is by nature a single cell assay so that cellular heterogeneity can be detected rather than population averages. This allows concurrent distinction of signaling states in different populations defined by other markers. Phosflow is also highly quantitative. To test the effects of one or more compounds provided herein, unfractionated splenocytes, or peripheral blood mononuclear cells are stimulated with anti-CD3 to initiate T-cell receptor signaling. The cells are then fixed and stained for surface markers and intracellular phosphoproteins. […]
Similarly, aliquots of whole blood are incubated for 15 minutes with vehicle (e.g., 0.1% DMSO) or kinase inhibitors at various concentrations, before addition of stimuli to crosslink the T cell receptor (TCR) (anti-CD3 with secondary antibody) or the B cell receptor (BCR) using anti-kappa light chain antibody (Fab′2 fragments). […] The level of phosphorylation of kinase substrates such as Akt and S6 are then measured by incubating the fixed cells with labeled antibodies specific to the phosphorylated isoforms of these proteins. The population of cells are then analyzed by flow cytometry.

Chain of PI3K δ (O00329 whole entry, the tested form may be a part): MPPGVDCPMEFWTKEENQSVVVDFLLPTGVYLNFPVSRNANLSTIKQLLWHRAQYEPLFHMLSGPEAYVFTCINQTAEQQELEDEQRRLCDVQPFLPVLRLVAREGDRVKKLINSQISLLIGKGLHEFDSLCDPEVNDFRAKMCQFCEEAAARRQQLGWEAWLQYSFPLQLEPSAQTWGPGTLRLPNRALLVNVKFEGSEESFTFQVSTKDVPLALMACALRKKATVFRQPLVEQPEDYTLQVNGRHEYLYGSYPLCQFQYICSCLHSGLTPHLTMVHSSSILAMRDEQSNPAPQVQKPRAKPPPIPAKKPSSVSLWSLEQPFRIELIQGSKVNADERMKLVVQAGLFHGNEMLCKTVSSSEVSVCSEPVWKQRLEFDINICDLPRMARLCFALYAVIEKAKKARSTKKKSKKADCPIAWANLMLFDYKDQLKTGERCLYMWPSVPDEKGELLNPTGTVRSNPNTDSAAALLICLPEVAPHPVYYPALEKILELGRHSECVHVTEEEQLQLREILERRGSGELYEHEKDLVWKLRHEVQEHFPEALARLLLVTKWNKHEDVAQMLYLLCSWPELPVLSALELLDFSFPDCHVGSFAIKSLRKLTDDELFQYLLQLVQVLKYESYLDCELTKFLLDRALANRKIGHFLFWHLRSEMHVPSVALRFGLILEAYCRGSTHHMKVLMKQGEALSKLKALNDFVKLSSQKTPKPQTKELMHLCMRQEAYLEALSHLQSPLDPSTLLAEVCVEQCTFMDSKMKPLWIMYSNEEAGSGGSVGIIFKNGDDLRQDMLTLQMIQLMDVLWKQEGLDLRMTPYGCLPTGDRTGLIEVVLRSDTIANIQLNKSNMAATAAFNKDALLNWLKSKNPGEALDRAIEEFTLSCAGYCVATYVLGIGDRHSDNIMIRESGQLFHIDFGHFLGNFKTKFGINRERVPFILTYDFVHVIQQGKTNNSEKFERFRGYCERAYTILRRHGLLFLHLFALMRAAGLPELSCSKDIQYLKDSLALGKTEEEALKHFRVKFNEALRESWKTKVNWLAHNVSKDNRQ
Chain of PI3K δ (P27986 whole entry partner, the tested form may be a part): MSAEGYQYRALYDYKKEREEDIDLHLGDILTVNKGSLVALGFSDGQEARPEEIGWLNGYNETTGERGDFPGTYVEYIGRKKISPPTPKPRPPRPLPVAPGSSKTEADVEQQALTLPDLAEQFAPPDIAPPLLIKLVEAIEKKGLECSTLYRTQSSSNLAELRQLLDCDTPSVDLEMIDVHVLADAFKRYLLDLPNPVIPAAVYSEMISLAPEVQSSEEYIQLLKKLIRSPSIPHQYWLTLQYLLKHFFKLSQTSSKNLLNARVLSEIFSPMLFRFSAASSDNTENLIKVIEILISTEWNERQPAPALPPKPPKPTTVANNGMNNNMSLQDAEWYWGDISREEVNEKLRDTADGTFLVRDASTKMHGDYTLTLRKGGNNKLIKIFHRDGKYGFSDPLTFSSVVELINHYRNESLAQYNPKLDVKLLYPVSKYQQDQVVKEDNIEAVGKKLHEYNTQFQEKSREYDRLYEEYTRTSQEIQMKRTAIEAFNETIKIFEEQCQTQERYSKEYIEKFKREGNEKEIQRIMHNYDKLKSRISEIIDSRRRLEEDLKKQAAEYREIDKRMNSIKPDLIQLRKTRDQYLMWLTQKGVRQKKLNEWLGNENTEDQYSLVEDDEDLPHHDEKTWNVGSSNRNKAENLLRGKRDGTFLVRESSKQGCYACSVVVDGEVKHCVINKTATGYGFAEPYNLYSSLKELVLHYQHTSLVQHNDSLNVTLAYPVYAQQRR

pIC50 [1] | pIC50 [2] | PI3K δ/PI3K γ IC50 (selectivity) ([2]; δ/γ IC50 selectivity) | Akt phosphorylation (Akt-S473) [3] | S6 phosphorylation [3] | Structure (SMILES)
< 5.00 | 6.30 to 7.00 | Y (Y = 50 to <850) | – | – | C[C@H](NC(=O)c1c(N)nn2ccccc12)c1cc2cccc(C#Cc3cnn(C)c3)c2c(=O)n1-c1ccccc1 [Compound 1]
5.30 to 6.00 | – | – | – | – | C[C@H](NC(=O)c1c(N)nn2ccccc12)c1cc2cccc(Cl)c2c(=O)n1-c1ccccc1 [Compound 31]
< 5.00 | < 5.30 | – | – | – | C[C@H](NC(=O)c1c(N)ncc2ccccc12)c1cc2cccc(Cl)c2c(=O)n1-c1ccccc1 [Compound 3626]
– | – | – | enhances | inhibits | CO[C@H]1C[C@@H]2CC[C@@H](C)[C@@](O)(O2)C(=O)C(=O)N2CCCC[C@H]2C(=O)O[C@H]([C@H](C)C[C@@H]2CC[C@@H](O)[C@H](OC)C2)CC(=O)[C@H](C)/C=C(\C)[C@@H](O)[C@@H](OC)C(=O)[C@H](C)C[C@H](C)/C=C/C=C/C=C/1C [rapamycin]
